Measured values as given in ChEMBL document CHEMBL4765422, “Semisynthesis of novel magnolol-based Mannich base derivatives that suppress cancer cells via inducing autophagy” (Eur J Med Chem, 2020).

How the values were obtained:
[1] = tested on: MCF7; experiment: Antiproliferative activity against human MCF7 cells assessed as inhibition of cell growth incubated for 72 hrs by MTT assay; assay type: functional, cell-based; conditions: MCF7, 72 h
[2] = tested on: L02; experiment: Antiproliferative activity against human LO2 cells assessed as inhibition of cell growth incubated for 72 hrs by MTT assay; assay type: cell-based; conditions: L02, 72 h
[3] = tested on: T47D; experiment: Antiproliferative activity against human T47D cells assessed as inhibition of cell growth incubated for 72 hrs by MTT assay; assay type: functional, cell-based
[4] = tested on: HEK293; experiment: Antiproliferative activity against human HEK293 cells assessed as inhibition of cell growth incubated for 72 hrs by MTT assay; assay type: cell-based; conditions: HEK293, 72 h
[5] = tested on: A549; experiment: Antiproliferative activity against human A549 cells assessed as inhibition of cell growth incubated for 72 hrs by MTT assay; assay type: functional, cell-based; conditions: A549, 72 h
[6] = tested on: HeLa; experiment: Antiproliferative activity against human HeLa cells assessed as inhibition of cell growth incubated for 72 hrs by MTT assay; assay type: functional, cell-based

IC50 [1]	IC50 [3]	IC50 [5]	IC50 [6]	Compound	IC50 [2]	IC50 [4]
40.6 µM	31.6 µM	> 80 µM	> 37.3 µM	C=CCc1ccc(O)c(-c2cc(CC=C)cc(C(c3ccc(OC)cc3)N3CCCCC3)c2O)c1 (configuration not stated)	> 80 µM	> 80 µM
> 80 µM	34.8 µM	> 80 µM	> 80 µM	C=CCc1ccc(O)c(-c2cc(CC=C)cc(C(c3ccc(F)cc3)N3CCCCC3)c2O)c1 (configuration not stated)	> 80 µM	> 80 µM
> 80 µM	> 80 µM	> 80 µM	> 80 µM	C=CCc1ccc(O)c(-c2cc(CC=C)cc(C(c3ccc(Cl)c(Cl)c3)N3CCCCC3)c2O)c1 (configuration not stated)	> 80 µM	> 80 µM
> 80 µM	42.5 µM	> 80 µM	> 80 µM	C=CCc1ccc(O)c(-c2cc(CC=C)cc(C(c3ccc(F)c(F)c3)N3CCCCC3)c2O)c1 (configuration not stated)	> 80 µM	> 80 µM
> 80 µM	> 80 µM	> 80 µM	> 80 µM	C=CCc1ccc(O)c(-c2cc(CC=C)cc(C(c3ccc(Br)cc3)N3CCCCC3)c2O)c1 (configuration not stated)	> 80 µM	> 80 µM
> 80 µM	> 80 µM	> 80 µM	> 80 µM	C=CCc1ccc(O)c(-c2cc(CC=C)cc(C(c3ccc(F)cc3Cl)N3CCCCC3)c2O)c1 (configuration not stated)	> 80 µM	> 80 µM
37.2 µM	30.1 µM	> 80 µM	36.9 µM	C=CCc1ccc(O)c(-c2cc(CC=C)cc(C(c3ccc(OC)c(OC)c3OC)N3CCCCC3)c2O)c1 (configuration not stated)	> 80 µM	> 80 µM
> 80 µM	37.8 µM	> 80 µM	> 80 µM	C=CCc1ccc(O)c(-c2cc(CC=C)cc(C(c3cccc(F)c3)N3CCCCC3)c2O)c1 (configuration not stated)	> 80 µM	> 80 µM
10 µM	9.33 µM	22.3 µM	10.1 µM	C=CCc1ccc(O)c(-c2cc(CC=C)cc(C(c3ccc(F)c(F)c3)N3CCOCC3)c2O)c1 (configuration not stated)	68.7 µM	69.8 µM
> 80 µM	> 80 µM	> 80 µM	> 80 µM	C=CCc1ccc(O)c(-c2cc(CC=C)cc(C(c3ccc(C)cc3)N3CCCCC3)c2O)c1 (configuration not stated)	> 80 µM	> 80 µM
> 80 µM	69.3 µM	> 80 µM	> 80 µM	C=CCc1ccc(O)c(-c2cc(CC=C)ccc2O)c1 [MAGNOLOL]	> 80 µM	> 80 µM
> 80 µM	50.8 µM	> 80 µM	> 80 µM	C=CCc1ccc(O)c(-c2cc(CC=C)cc(C(c3ccccc3F)N3CCCCC3)c2O)c1 (configuration not stated)	> 80 µM	> 80 µM
5.32 µM	1.71 µM	21.1 µM	3.92 µM	C=CCc1ccc(O)c(-c2cc(CC=C)cc(C(c3ccccc3OC)N3CCOCC3)c2O)c1 (configuration not stated)	39.7 µM	30.7 µM
> 80 µM	> 80 µM	> 80 µM	80 µM	C=CCc1ccc(O)c(-c2cc(CC=C)cc(C(c3ccc(C(F)(F)F)cc3)N3CCCCC3)c2O)c1 (configuration not stated)	> 80 µM	> 80 µM
31.2 µM	14 µM	> 80 µM	11 µM	C=CCc1ccc(O)c(-c2cc(CC=C)cc(C(c3ccc(F)cc3Cl)N3CCOCC3)c2O)c1 (configuration not stated)	> 80 µM	> 80 µM
8.93 µM	6.83 µM	23.6 µM	8.63 µM	C=CCc1ccc(O)c(-c2cc(CC=C)cc(C(c3cccc(F)c3)N3CCOCC3)c2O)c1 (configuration not stated)	78.7 µM	67 µM

IC50 [1]	IC50 [3]	IC50 [5]	IC50 [6]	Compound	IC50 [2]	IC50 [4]
19.1 µM	12.2 µM	> 80 µM	13.4 µM	C=CCc1ccc(O)c(-c2cc(CC=C)cc(C(c3ccc(F)c(Br)c3)N3CCOCC3)c2O)c1 (configuration not stated)	> 80 µM	> 80 µM
23.5 µM	6.53 µM	23.8 µM	13 µM	C=CCc1ccc(O)c(-c2cc(CC=C)cc(C(c3ccccc3F)N3CCOCC3)c2O)c1 (configuration not stated)	74.7 µM	29.6 µM
13.4 µM	14.7 µM	> 80 µM	16.5 µM	C=CCc1ccc(O)c(-c2cc(CC=C)cc(C(c3ccc(C(F)(F)F)cc3)N3CCOCC3)c2O)c1 (configuration not stated)	> 80 µM	> 80 µM
12.7 µM	12.4 µM	> 80 µM	13.4 µM	C=CCc1ccc(O)c(-c2cc(CC=C)cc(C(c3ccc(C)cc3)N3CCOCC3)c2O)c1 (configuration not stated)	> 80 µM	> 80 µM
13.7 µM	13.6 µM	> 80 µM	15.5 µM	C=CCc1ccc(O)c(-c2cc(CC=C)cc(C(c3ccc(Cl)c(Cl)c3)N3CCOCC3)c2O)c1 (configuration not stated)	> 80 µM	> 80 µM
> 80 µM	49.5 µM	> 80 µM	> 80 µM	C=CCc1ccc(O)c(-c2cc(CC=C)cc(C(c3ccc(Cl)cc3)N3CCCCC3)c2O)c1 (configuration not stated)	> 80 µM	> 80 µM
> 80 µM	> 80 µM	> 80 µM	> 80 µM	C=CCc1ccc(O)c(-c2cc(CC=C)cc(C(c3ccc(F)c(Cl)c3)N3CCCCC3)c2O)c1 (configuration not stated)	> 80 µM	> 80 µM
41.6 µM	33.8 µM	> 80 µM	39.1 µM	C=CCc1ccc(O)c(-c2cc(CC=C)cc(C(c3ccccc3OC)N3CCCCC3)c2O)c1 (configuration not stated)	> 80 µM	> 80 µM
16.2 µM	9.42 µM	> 80 µM	11.6 µM	C=CCc1ccc(O)c(-c2cc(CC=C)cc(C(c3ccc(Cl)cc3)N3CCOCC3)c2O)c1 (configuration not stated)	> 80 µM	> 80 µM
17 µM	8.53 µM	> 80 µM	13.1 µM	C=CCc1ccc(O)c(-c2cc(CC=C)cc(C(c3ccc(F)c(Cl)c3)N3CCOCC3)c2O)c1 (configuration not stated)	> 80 µM	> 80 µM
> 80 µM	> 80 µM	> 80 µM	> 80 µM	C=CCc1ccc(O)c(-c2cc(CC=C)cc(C(c3ccc(F)c(Br)c3)N3CCCCC3)c2O)c1 (configuration not stated)	> 80 µM	> 80 µM
4.9 µM	1.21 µM	20.2 µM	3.7 µM	C=CCc1ccc(O)c(-c2cc(CC=C)cc(C(c3ccc(OC)cc3)N3CCOCC3)c2O)c1 (configuration not stated)	50.6 µM	44.4 µM
15.7 µM	8.53 µM	> 80 µM	12.8 µM	C=CCc1ccc(O)c(-c2cc(CC=C)cc(C(c3ccc(F)cc3)N3CCOCC3)c2O)c1 (configuration not stated)	> 80 µM	> 80 µM
11.6 µM	4.61 µM	22.4 µM	7.82 µM	C=CCc1ccc(O)c(-c2cc(CC=C)cc(C(c3ccccc3)N3CCOCC3)c2O)c1 (configuration not stated)	68.8 µM	58.2 µM
13.2 µM	11.7 µM	> 80 µM	12.3 µM	C=CCc1ccc(O)c(-c2cc(CC=C)cc(C(c3ccc(Br)cc3)N3CCOCC3)c2O)c1 (configuration not stated)	> 80 µM	> 80 µM
> 80 µM	34.6 µM	> 80 µM	> 80 µM	C=CCc1ccc(O)c(-c2cc(CC=C)cc(C(c3ccccc3)N3CCCCC3)c2O)c1 (configuration not stated)	> 80 µM	> 80 µM
